According to US20060116505A1, “Glucose and/or fructose transporter naglt1 and its gene” (priority 2002, published 2006):

How the values were obtained:
[1] = tested on: renal brush border membrane vesicles; experiment: Na+-dependent uptake of [14C] fructose by renal brush border membrane vesicles; type: biochemical, rat; settings: [14C] fructose 2 mM, 15 seconds at 25° C., glucose analog 30 mM, phloridzin or phloretin 50 μM; for Na+-dependent uptake of [14C] fructose by renal brush border membrane vesicles: KCl uptake deducted
[2] = target: T1, rNaGLT1 (Rattus norvegicus, UniProt Q80T22, M166I/S3F); experiment: Uptake of [14C] fructose by HEK293 cells transfected with rNaGLT1; type: cell-based; settings: [14C] fructose 0.1 mM, 15 minutes at 37° C., glucose analog 30 mM, phloridzin or phloretin 50 μM; for Uptake of [14C] fructose by HEK293 cells expressing rNaGLT1: vector uptake deducted
T1 construct: expressed in transfected cells; host or cells: HEK293 cells, transient transfection, assayed 2 days later
T1 sequence (Q80T22 1-484 S3F/M166I): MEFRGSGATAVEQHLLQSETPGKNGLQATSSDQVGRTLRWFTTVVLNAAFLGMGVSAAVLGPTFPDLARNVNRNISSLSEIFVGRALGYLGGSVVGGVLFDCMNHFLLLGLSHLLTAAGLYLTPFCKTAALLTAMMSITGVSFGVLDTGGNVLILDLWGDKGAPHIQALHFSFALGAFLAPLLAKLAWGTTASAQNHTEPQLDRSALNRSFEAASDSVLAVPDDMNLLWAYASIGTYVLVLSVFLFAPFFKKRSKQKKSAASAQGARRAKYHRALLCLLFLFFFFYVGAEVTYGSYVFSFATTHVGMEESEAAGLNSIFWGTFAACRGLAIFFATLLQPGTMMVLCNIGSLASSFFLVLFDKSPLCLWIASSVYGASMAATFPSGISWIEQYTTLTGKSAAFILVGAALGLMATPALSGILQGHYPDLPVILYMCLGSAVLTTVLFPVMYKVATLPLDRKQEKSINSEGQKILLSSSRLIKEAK

[3] = target: T2, NaGLT1 (Rattus norvegicus, UniProt Q80T22, M166I/S3F); experiment: Effect of inhibitors on uptake of [14C]-labeled αMeGlc by NaGLT1-expressing oocytes; type: cell-based
T2 construct: expressed in transfected cells; host or cells: Xenopus oocytes injected with NaGLT1 RNA synthesized in vitro
T2 sequence (Q80T22 1-484 S3F/M166I): T1 sequence (Q80T22 1-484 S3F/M166I)
Experimental: (§1) Uptake activity of NaGLT1 cRNA-injected cell and water-injected oocyte to [U-^14C]-α-methyl-D-glucopyranoside (α-MeGlc), D-[1-^14C] galactose, D-[U-^14C] mannose, D-[U-^14C] fructose, [1,2-^3H]-2-deoxy-glucose, D-[1-^3H] mannitol, [U-^14C] sucrose was measured. At that time, incubation was conducted in a buffer solution comprising 96 mM NaCl, 2 mM KCl, 1.8 mM CaCl2, 1 mM MgCl2, 5 mM HEPES (pH 7.4). Further, when extracellular Na^+ concentration dependency was conducted, the concentration of NaCl was adjusted to be within the range of 9.6 to 96 mM, and the final osmotic pressure was kept constant by making up for the shortage to 96 mM with choline chloride (FIGS. 6 and 7).

[4] = target: T2, NaGLT1; experiment: Uptake of radio-labeled saccharides by NaGLT1-expressing Xenopus oocytes; type: cell-based
Experimental: Transportation activity of NaGLT1 was examined with the expression system of Xenopus oocytes (hereinafter abbreviated as oocytes). First, in order to examine the selectivity of various saccharides, NaGLT1 RNA synthesized in vitro was injected into the oocyte and incubated for 2 days at 18° C., then used for the experiment.
as §1
Next, concentration dependency of αMeGlc uptake was examined by using NaGLT1-expressing oocytes. […] In addition, the effect of extracellular Na^+ ion concentration on the uptake of αMeGlc mediated by NaGLT1 was analyzed. First, extracellular Na^+ concentration was varied from 0 to 96 mM, at the state wherein membrane potential difference was eliminated by the addition of 7 μM valinomycin, and the effect of extracellular Na^+ on the uptake of αMeGlc by rNaGLT1 was examined. […] Further, by examination of dose- or extracellular Na^+-dependancy to the uptake of αMeGlc by rNaGLT1 (FIGS. 6A and 6C), Vmax value (the maximum transport rate) and Km value were calculated for each case. Based on those values, Hill plot (logarithmic values of the figure calculated by dividing Vmax by transport rate V when the abscissa axis is the concentration of varied substrate or ion, and ordinate axis is each substrate (or ion) concentration) was conducted (FIGS. 6B and 6D) and Hill coefficient was calculated. […]

| Compound | Uptake of [14C] fructose by HEK293 cells expressing rNaGLT1, % of control [2] | Uptake of [14C] fructose by HEK293 cells expressing rNaGLT1 [2] [Pmol/mg protein/min] | effect on the uptake of [14C]-labeled αMeGlc [3] | Hill coefficient ([4]; Hill plot of αMeGlc uptake by rNaGLT1, dose- or extracellular Na+-dependency) | Km ([4]; NaGLT1-expressing oocytes, concentration dependency, read-out: Km value of αMeGlc uptake) [mM] | uptake of radio-labeled saccharide in comparison to water-injected oocytes ([4]; NaGLT1 RNA-injected Xenopus oocytes, incubated 2 days at 18° C.) | Na+-dependent uptake of [14C] fructose by renal brush border membrane vesicles, % of control [1] | Na+-dependent uptake of [14C] fructose by renal brush border membrane vesicles [1] [Pmol/mg protein/sec] |
| --- | --- | --- | --- | --- | --- | --- | --- | --- |
| OC[C@H]1O[C@H](CO)[C@@H](O)[C@@H]1O [2,5-AM] | 40 % of control | 1.16 ± 0.16 |  |  |  |  | 78 % of control | 38.6 ± 2.6 |
| O=CC[C@@H](O)[C@H](O)[C@H](O)CO [2-DG, 2-deoxyglucose] | 70 % of control | 2.04 ± 0.19 | extremely strong inhibitory effect |  |  |  | 34 % of control | 16.8 ± 3.7 |
| O=C(CO)[C@@H](O)[C@H](O)[C@H](O)CO [Fructose, fructose] | 8 % of control | 0.22 ± 0.06 | weak inhibitory effect |  |  |  | 11 % of control | 5.4 ± 2.1 |
| O=C(CCc1ccc(O)cc1)c1c(O)cc(O)cc1O [Phloretin, phloretin] | 33 % of control | 0.97 ± 0.09 | weak inhibitory effect |  |  |  | 72 % of control | 35.8 ± 3.5 |
| O=C(CCc1ccc(O)cc1)c1c(O)cc(O)cc1O[C@@H]1O[C@H](CO)[C@@H](O)[C@H](O)[C@H]1O [Phloridzin, phloridzin] | 12 % of control |  |  |  |  |  |  |  |
| OC[C@H]1O[C@@](CO)(O[C@H]2O[C@H](CO)[C@@H](O)[C@H](O)[C@H]2O)[C@@H](O)[C@@H]1O [Sucrose, sucrose] | 144 % of control | 4.20 ± 0.17 |  |  |  |  | 96 % of control | 47.3 ± 6.0 |
| CO[C@H]1O[C@H](CO)[C@@H](O)[C@H](O)[C@H]1O [αMeGlc, α-methyl-D-glucopyranoside] | 42 % of control | 1.24 ± 0.13 | extremely strong inhibitory effect | 1.06 | 3.71 ± 0.09 | significantly high | 48 % of control | 23.8 ± 2.1 |

Continued, in another order:

| Uptake of [14C] fructose by HEK293 cells expressing rNaGLT1, % of control [2] | Uptake of [14C] fructose by HEK293 cells expressing rNaGLT1 [2] [Pmol/mg protein/min] | effect on the uptake of [14C]-labeled αMeGlc [3] | Hill coefficient ([4]; Hill plot of αMeGlc uptake by rNaGLT1, dose- or extracellular Na+-dependency) | Km ([4]; NaGLT1-expressing oocytes, concentration dependency, read-out: Km value of αMeGlc uptake) [mM] | uptake of radio-labeled saccharide in comparison to water-injected oocytes ([4]; NaGLT1 RNA-injected Xenopus oocytes, incubated 2 days at 18° C.) | Compound | Na+-dependent uptake of [14C] fructose by renal brush border membrane vesicles, % of control [1] | Na+-dependent uptake of [14C] fructose by renal brush border membrane vesicles [1] [Pmol/mg protein/sec] |
| --- | --- | --- | --- | --- | --- | --- | --- | --- |
| 89 % of control | 2.60 ± 0.15 | no effect |  |  |  | CO[C@@H]([C@H](O)[C@H](O)CO)[C@@H](O)C=O [3-OMG, 3-O-methylglucose] | 95 % of control | 47.1 ± 4.5 |
|  |  | extremely strong inhibitory effect |  |  |  | O=C[C@H](O)[C@@H](O)[C@H](O)[C@H](O)CO [D-glucose] |  |  |
| 99 % of control | 2.88 ± 0.23 | no effect |  |  |  | O=C[C@H](O)[C@@H](O)[C@@H](O)[C@H](O)CO [Galactose, galactose] | 71 % of control | 35.2 ± 3.3 |
|  |  | no effect |  |  |  | O=C[C@@H](O)[C@H](O)[C@@H](O)[C@@H](O)CO [L-glucose] |  |  |
